Measurements as given in paper PMC9266822, “Thermal Shift Assay for Small GTPase Stability Screening: Evaluation and Suitability” (International Journal of Molecular Sciences, 2022).
Entries after “also recorded” stand apart in the source; their conditions may differ.

Legend:
KRAS WT [1] = biological target: T1, KRAS WT (Homo sapiens, UniProt P01116); experiment: QRET nucleotide exchange assay, SOScat induced; format: biochemical; conditions: for KRAS binding level / KRAS binding: Fig. 3A legend, SOScat 10 nM; for KRAS binding level / EC50 / KRAS binding: 15 nM KRAS; for EC50: nucleotide titration, SOScat 5 nM (Table S2), 10 nM (Fig. 3 legend)
T1 construct: GG-Hs.KRAS4b (2-188), GG-Hs.KRAS4b (2-188) G12C; His6-MBP (N, cleaved yes); made in house; host or cells: E. coli
T1 sequence (P01116 2-188 isoform P01116-2): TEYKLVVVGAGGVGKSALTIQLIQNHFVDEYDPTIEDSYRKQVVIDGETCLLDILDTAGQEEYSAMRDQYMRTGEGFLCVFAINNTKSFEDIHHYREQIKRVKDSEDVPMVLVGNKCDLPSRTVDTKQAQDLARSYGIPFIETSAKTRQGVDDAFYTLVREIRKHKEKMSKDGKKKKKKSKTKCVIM

KRAS WT [2] = system: T2, KRAS WT; experiment: Protein-Probe thermal stability assay; format: binding, human; conditions: for concentration at which KRAS was stabilized / thermal stability effect / KRAS stabilizing effect: 1 mM MgCl2; for Thermal Stability (°C): Table S1, additive as headed: EDTA 0.5 mM, MgCl2 1 mM, GDP 10 mM, GTP 10 µM, GTPγS 10 µM, GMP-PNP 300 µM; for Thermal Stability (°C) / KRAS stabilizing effect: GMP-PCP 300 µM, GMP 1 mM; for thermal stability effect: 10 µM compound
T2 construct: His6-MBP (N, cleaved yes); made in house; host or cells: E. coli
Protocol: (§1) All Protein-Probe assays were performed using a sample volume of 8 µL and a two-step assay protocol. Detection was performed at room temperature (RT) by adding 65 µL Protein-Probe solution: 4 µM HIDC (1,1,3,3,3′,3′-hexamethylindodicarbocyanine iodide) and 1–1.5 nM Eu^3+-labeled peptide probe (NH2-[…]). Assays were performed in a sample buffer containing 10 mM HEPES (pH 7.5), 0.001% Triton X-100 and 20 mM NaCl and the buffer was supplemented with 0–10 mM MgCl2, 0–1 mM CaCl2, or 0–1 mM EDTA, depending on the assay. In all thermal stability assays, samples were preincubated at RT for 10 min (nucleotides) or 30 min (inhibitors) prior to thermal measurements. Depending on the studied protein, thermal ramping was performed up to 95 °C, using 5 °C intervals. At each temperature, samples were incubated for 3 min before the Protein-Probe solution was added, and the TRL-signals at 620 nm were monitored at RT.
(§2) In addition, KRAS WT was monitored in a sample buffer supplemented with 0–10 mM MgCl2 or 0–1 mM CaCl2.
[…] KRAS WT (50 nM) was also monitored with 10 µM GDP in a buffer without MgCl2 or supplemented with 0–1 mM CaCl2 or 1 mM EDTA. HRAS (2 µM), NRAS (2 µM), RhoA (2 µM), and Gαi (50 nM) were monitored with 100 µM GDP, GTP, or ATP in buffers with or without 1 mM MgCl2 and 1 mM EDTA. In addition, melting curves for KRAS WT (50 nM) were measured with GTP analogs GTPγS, GMPPNP, and GMPPCP (0–300 µM), and GMP (0–1000 µM) in the presence of 1 mM MgCl2.
(§3) All inhibitor assays were performed with a buffer containing 1 mM MgCl2. […]

KRAS G12C = system: T3, KRAS G12C; experiment: Protein-Probe thermal stability assay; format: binding, human; conditions: for thermal stability effect: 10 µM compound, 1 mM MgCl2
T3 construct: GG-Hs.KRAS4b (2-188) G12C; His6-MBP (N, cleaved yes); made in house; host or cells: E. coli
Protocol: All Protein-Probe assays were performed using a sample volume of 8 µL and a two-step assay protocol. […] Assays were performed in a sample buffer containing 10 mM HEPES (pH 7.5), 0.001% Triton X-100 and 20 mM NaCl and the buffer was supplemented with 0–10 mM MgCl2, 0–1 mM CaCl2, or 0–1 mM EDTA, depending on the assay. In all thermal stability assays, samples were preincubated at RT for 10 min (nucleotides) or 30 min (inhibitors) prior to thermal measurements. […] At each temperature, samples were incubated for 3 min before the Protein-Probe solution was added, and the TRL-signals at 620 nm were monitored at RT. […]
as §3

KRAS G12D = experiment: Protein-Probe thermal stability assay; format: binding, human; conditions: KRAS G12D 50 nM; 10 µM compound
Protocol: as §1, §2
(§4) KRAS G13D (50 nM) was monitored in the presence of 0–900 nM GDP, and KRAS WT, G13D, G12D, and Q61R (50 nM) were monitored with 10 and/or 100 µM GDP, GTP, and ATP in buffer supplemented with 1 mM MgCl2. KRAS WT (50 nM) was also monitored with 10 µM GDP in a buffer without MgCl2 or supplemented with 0–1 mM CaCl2 or 1 mM EDTA. HRAS (2 µM), NRAS (2 µM), RhoA (2 µM), and Gαi (50 nM) were monitored with 100 µM GDP, GTP, or ATP in buffers with or without 1 mM MgCl2 and 1 mM EDTA. In addition, melting curves for KRAS WT (50 nM) were measured with GTP analogs GTPγS, GMPPNP, and GMPPCP (0–300 µM), and GMP (0–1000 µM) in the presence of 1 mM MgCl2.
All inhibitor assays were performed with a buffer containing 1 mM MgCl2.
(§5) Assays were performed using three DARPins alone or in combination with small molecular inhibitors. […] The thermal curves were monitored after an additional 30 min incubation at RT.

KRAS G13D = system: T4, KRAS G13D; experiment: Protein-Probe thermal stability assay; format: binding, human; conditions: for Thermal Stability (°C): Table S1, KRAS G13D 50 nM, EDTA 0.5 mM, MgCl2 1 mM, GDP 10 mM, GTP 10 µM as headed
T4 construct: GG-Hs.KRAS4b (2-188) G13D; His6-MBP (N, cleaved yes); made in house; host or cells: E. coli
Protocol: as §1, §2, §4, §5

KRAS Q61R = system: T5, KRAS Q61R; experiment: Protein-Probe thermal stability assay; format: binding, human; conditions: for Thermal Stability (°C): Table S1, KRAS Q61R 50 nM, EDTA 0.5 mM, MgCl2 1 mM, GDP 10 mM, GTP 10 µM as headed
T5 construct: GG-Hs.KRAS4b (2-188) Q61R; His6-MBP (N, cleaved yes); made in house; host or cells: E. coli
Protocol: as §1, §2, §4, §5

RhoA = system: T6, RhoA; experiment: Protein-Probe thermal stability assay; format: binding; conditions: Table S1; RhoA 1 µM; additive concentrations not given (100 µM GDP/GTP)
T6 construct: and RhoA (1-182) were gen-; His6-MBP (N, cleaved yes); made in house; host or cells: E. coli
Protocol: as §1, §2
as §4, with “HRAS (2 µM), NRAS (2 µM), RhoA (2 µM), and Gαi (50 nM) were monitored with 100 µM GDP, GTP, or ATP in buffers with or without 1 mM MgCl2 and 1 mM EDTA.” left out

Gαi = experiment: Protein-Probe thermal stability assay; format: binding; conditions: 100 µM GDP or GTP
Protocol: as §1, §2, §4

## Nc1nc2c(ncn2[C@@H]2O[C@H](COP(=O)(O)OP(=O)(O)NP(=O)(O)O)[C@@H](O)[C@H]2O)c(=O)[nH]1 [GMP-PNP, guanosine-5’-[(β,γ)-imido]triphosphate]
KRAS WT [1]
  KRAS binding level: micromolar
  EC50: 71.2 ± 9.3 nM
KRAS WT [2]; KRAS 50 nM preloaded with the nucleotide, unit not given, in °C (unit assumed)
  Tm of nucleotide-preloaded KRAS: 53.2 ± 0.3
KRAS WT [2]; KRAS WT 50 nM
  concentration at which KRAS was stabilized: 300000 nM
  Thermal Stability (°C): 67.1 ± 0.1 °C

## Cn1cnc(Cn2ccc3ccc(CNCc4[nH]c5ccccc5c4[C@H]4NC(=O)c5ccc(O)cc54)cc32)c1 [BI-2852]
KRAS WT [1]; 100 nM KRAS WT, 10 nM SOScat, inhibitor preincubated with KRAS
  IC50: 2800 ± 700 nM
KRAS WT [2]; KRAS WT 50 nM
  thermal stability effect: Neither compound altered; also recorded: negligible
KRAS G12C; KRAS G12C 50 nM
  thermal stability effect: negligible
KRAS G12D
  thermal stability effect: Neither compound altered; also recorded: negligible

## C=C(F)C(=O)N1CCN(c2nc(OC[C@@H]3CCCN3C)nc3c2CCN(c2cccc4cccc(Cl)c24)C3)C[C@@H]1CC#N [MRTX849]
KRAS G12C; 50 nM KRAS G12C, inhibitor 0–900 nM, thermal stability increase
  ΔTm: 15.6 °C

## Nc1nc2c(ncn2[C@@H]2O[C@H](COP(=O)(O)O)[C@@H](O)[C@H]2O)c(=O)[nH]1 [GMP, guanosine-5’-monophosphate]
KRAS WT [1]
  EC50: 101000 ± 8000 nM
KRAS WT [2]; KRAS WT 50 nM
  KRAS stabilizing effect: no KRAS stabilizing effect; also recorded: no KRAS stabilization
  Thermal Stability (°C): 61.3 °C

## O=C(O)CN(CCN(CC(=O)O)CC(=O)O)CC(=O)O [EDTA]
KRAS WT [2]; KRAS WT 50 nM, 1 mM EDTA, unit not given, in °C (unit assumed)
  Tm: 50.8 ± 0.6
KRAS WT [2]; KRAS WT 100 nM, additive 1 mM
  Tm: 48.9 ± 0.4 °C
KRAS WT [2]; KRAS WT 50 nM
  Thermal Stability (°C): 49.0 °C
KRAS G12C; Table S1, KRAS G12C 50 nM, EDTA 0.5 mM, MgCl2 1 mM
  Thermal Stability (°C): 48.2 ± 0.4 °C
KRAS G13D; KRAS G13D 100 nM, additive 1 mM
  Tm: 43.6 ± 0.8 °C
KRAS G13D
  Thermal Stability (°C): 47.7 ± 0.5 °C
KRAS Q61R; KRAS Q61R 100 nM, additive 1 mM
  Tm: 50.6 ± 1.0 °C
KRAS Q61R
  Thermal Stability (°C): 51.8 ± 0.9 °C
RhoA
  Thermal Stability (°C): 44.7 °C

## Nc1nc2c(ncn2[C@@H]2O[C@H](COP(=O)(O)OP(=O)(O)OP(O)(O)=S)[C@@H](O)[C@H]2O)c(=O)[nH]1 [GTPγS, guanosine-5’-(γ-thio)-triphosphate]
KRAS WT [1]
  KRAS binding: < 15 nM
  EC50: 11.7 ± 0.8 nM
KRAS WT [2]; KRAS WT 50 nM
  concentration at which KRAS was stabilized: 10000 nM
  Thermal Stability (°C): 67.8 ± 0.6 °C

## Cn1cnc(Cn2ccc3ccc(CNCc4[nH]c5ccccc5c4[C@@H]4NC(=O)c5ccc(O)cc54)cc32)c1 [BI-2853]
KRAS WT [1]; 100 nM KRAS WT, 10 nM SOScat
  effect on KRAS nucleotide exchange activity: no effect
KRAS WT [2]; KRAS WT 50 nM
  thermal stability effect: Neither compound altered
KRAS G12C; KRAS G12C 50 nM
  thermal stability effect: no response
KRAS G12D
  thermal stability effect: Neither compound altered

## Nc1nc2c(ncn2C2OC(COP(=O)(O)OP(=O)(O)CP(=O)(O)O)C(O)C2O)c(=O)[nH]1 (stereo not drawn) [GMP-PCP, guanosine-5’-[(β,γ)-methyleno]triphosphate]
KRAS WT [1]
  KRAS binding level: micromolar
  EC50: 542 ± 38 nM
KRAS WT [2]; KRAS WT 50 nM
  KRAS stabilizing effect: minor effects
  Thermal Stability (°C): 64.4 °C

## CNCc1ccccc1-c1csc([C@@H](C)Nc2nc(C)nc3cc(OC)c(OC)cc23)c1 [BAY-293]
KRAS G12C; KRAS G12C 50 nM
  thermal stability effect: no response

## Nc1nc2c(ncn2[C@@H]2O[C@H](COP(=O)(O)OP(=O)(O)OP(=O)(O)O)[C@@H](O)[C@H]2O)c(=O)[nH]1 [GTP, guanosine-5’-triphosphate]
KRAS WT [1]
  KRAS binding: < 15 nM
  EC50: 7.9 ± 0.6 nM
KRAS WT [2]; KRAS WT 50 nM
  concentration at which KRAS was stabilized: 10000 nM
  Thermal Stability (°C): 68.2 °C
KRAS G13D
  Thermal Stability (°C): 60.8 °C
KRAS Q61R
  Thermal Stability (°C): 71.7 °C
RhoA
  Thermal Stability (°C): 73.0 °C
Gαi; with Mg2+
  max ΔTm: ≤ 1.0 °C
Gαi; without Mg2+
  max ΔTm: ≤ 3.3 °C

## [Ca+2].[Cl-].[Cl-] [CaCl2]
KRAS WT [2]; KRAS WT 50 nM, additive 0.1 mM
  stability increase compared to 1 mM EDTA: 1.2 °C
KRAS WT [2]; KRAS WT 50 nM, additive 1 mM
  stability increase compared to 1 mM EDTA: 3.7 °C
